# Source: US20260217701A1, “SELECTIVE BET INHIBITORS AND USES THEREOF” (Tay Therapeutics Limited, priority 2022, published 2026)
# Values joined by “and” are separate entries in the source; they are usually repeats but may differ in a detail not shown here. Identical values can stand only once.
# System: collagen-induced arthritis
# Assay: Collagen-induced arthritis (CIA) model: clinical scores and paw volume; for Animal paw volume percent change (%): reference of the scale not given here; for Average animal paw volume percent change (%): reference of the scale not given here
# Type: in vivo, Lewis rats
# Settings: for Overall Clinical Score: individual animals 1-8; for Animal paw volume percent change (%): individual animals
# [1] = Day 12, CIA + Compound A 10 mg/kg
# [2] = Day 13, L paw, group 5 CIA + Compound A 1 mg/kg
# [3] = Day 13, L paw, group 6 CIA + Compound A 3 mg/kg
# [4] = Day 13, L paw, group 7 CIA + Compound A 10 mg/kg
# [5] = Day 13, R paw, group 5 CIA + Compound A 1 mg/kg
# [6] = Day 13, R paw, group 6 CIA + Compound A 3 mg/kg
# [7] = Day 13, R paw, group 7 CIA + Compound A 10 mg/kg
# [8] = Day 13, CIA + Compound A 1 mg/kg
# [9] = Day 13, CIA + Compound A 3 mg/kg
# [10] = Day 13, CIA + Compound A 10 mg/kg
# [11] = Day 14, L paw, group 5 CIA + Compound A 1 mg/kg
# [12] = Day 14, L paw, group 6 CIA + Compound A 3 mg/kg
# [13] = Day 14, L paw, group 7 CIA + Compound A 10 mg/kg
# [14] = Day 14, R paw, group 5 CIA + Compound A 1 mg/kg
# [15] = Day 14, R paw, group 6 CIA + Compound A 3 mg/kg
# [16] = Day 14, R paw, group 7 CIA + Compound A 10 mg/kg
# [17] = Day 14, CIA + Compound A 1 mg/kg
# [18] = Day 14, CIA + Compound A 3 mg/kg
# [19] = Day 14, CIA + Compound A 10 mg/kg
# [20] = Day 15, L paw, group 5 CIA + Compound A 1 mg/kg
# [21] = Day 15, L paw, group 6 CIA + Compound A 3 mg/kg
# [22] = Day 15, L paw, group 7 CIA + Compound A 10 mg/kg
# [23] = Day 15, R paw, group 5 CIA + Compound A 1 mg/kg
# [24] = Day 15, R paw, group 6 CIA + Compound A 3 mg/kg
# [25] = Day 15, R paw, group 7 CIA + Compound A 10 mg/kg
# [26] = Day 15, CIA + Compound A 1 mg/kg
# [27] = Day 15, CIA + Compound A 3 mg/kg
smiles,measurement,setting,value
"Cn1cc(-c2ccccc2)c(-c2cn(C)c(=O)c3[nH]c(-c4cnn(C(F)(F)F)c4)cc23)cc1=O [Compound A, 6-methyl-4-(1-methyl-2-oxo-5-phenyl-1,2-dihydropyridin-4-yl)-2-(1-(trifluoromethyl)-1H-pyrazol-4-yl)-1,6-dihydro-7H-pyrrolo[2,3-c]pyridin-7-one]","Average detailed clinical score, left forelimb",[1],0.00
same,"Average detailed clinical score, left hind limb",[1],0.00
same,"Average detailed clinical score, right forelimb",[1],0.00
same,"Average detailed clinical score, right hind limb",[1],0.13
same,"Average detailed clinical score, score",[1],0.13
same,Average overall clinical score,[1],0
same,Average animal paw volume,[2],1.42 mL
same,Average animal paw volume percent change (%),[2],7.45%
same,Average animal paw volume,[3],1.40 mL
same,Average animal paw volume percent change (%),[3],6.55%
same,Average animal paw volume,[4],1.41 mL
same,Average animal paw volume percent change (%),[4],7.21%
same,Average animal paw volume,[5],1.43 mL
same,Average animal paw volume percent change (%),[5],7.62%
same,Average animal paw volume,[6],1.40 mL
same,Average animal paw volume percent change (%),[6],6.26%
same,Average animal paw volume,[7],1.41 mL
same,Average animal paw volume percent change (%),[7],7.41%
same,"Average detailed clinical score, left forelimb",[8],0
same,"Average detailed clinical score, left hind limb",[8],0
same,"Average detailed clinical score, right forelimb",[8],0
same,"Average detailed clinical score, right hind limb",[8],0
same,"Average detailed clinical score, score",[8],0
same,Average overall clinical score,[8],0
same,Overall Clinical Score,"Day 13, CIA + Compound A 1 mg/kg, 1 mg/kg",0 (6×) and 2 and 1
same,"Average detailed clinical score, left forelimb",[9],0
same,"Average detailed clinical score, left hind limb",[9],0
same,"Average detailed clinical score, right forelimb",[9],0
same,"Average detailed clinical score, right hind limb",[9],0
same,"Average detailed clinical score, score",[9],0
same,Average overall clinical score,[9],0
same,Overall Clinical Score,"Day 13, CIA + Compound A 3 mg/kg, 3 mg/kg",0
same,"Average detailed clinical score, left forelimb",[10],0
same,"Average detailed clinical score, left hind limb",[10],0.125
same,"Average detailed clinical score, right forelimb",[10],0.125
same,"Average detailed clinical score, right hind limb",[10],0.25
same,"Average detailed clinical score, score",[10],0.5
same,Average overall clinical score,[10],1
same,Average animal paw volume,[11],1.53 mL
same,Average animal paw volume percent change (%),[11],15.36%
same,Average animal paw volume,[12],1.44 mL
same,Average animal paw volume percent change (%),[12],9.64%
same,Average animal paw volume,[13],1.44 mL
same,Average animal paw volume percent change (%),[13],9.68%
same,Average animal paw volume,[14],1.49 mL
same,Average animal paw volume percent change (%),[14],11.73%
same,Average animal paw volume,[15],1.45 mL
same,Average animal paw volume percent change (%),[15],10.16%
same,Average animal paw volume,[16],1.44 mL
same,Average animal paw volume percent change (%),[16],9.90%
same,"Average detailed clinical score, left forelimb",[17],0
same,"Average detailed clinical score, left hind limb",[17],1
same,"Average detailed clinical score, right forelimb",[17],0
same,"Average detailed clinical score, right hind limb",[17],0
same,"Average detailed clinical score, score",[17],1
same,Average overall clinical score,[17],1
same,Overall Clinical Score,"Day 14, CIA + Compound A 1 mg/kg, 1 mg/kg",0 (3×) and 2 (2×) and 1 (3×)
same,"Average detailed clinical score, left forelimb",[18],0
same,"Average detailed clinical score, left hind limb",[18],0
same,"Average detailed clinical score, right forelimb",[18],0
same,"Average detailed clinical score, right hind limb",[18],0
same,"Average detailed clinical score, score",[18],1
same,Average overall clinical score,[18],1
same,Overall Clinical Score,"Day 14, CIA + Compound A 3 mg/kg, 3 mg/kg",0
same,"Average detailed clinical score, left forelimb",[19],0
same,"Average detailed clinical score, left hind limb",[19],0.25
same,"Average detailed clinical score, right forelimb",[19],0
same,"Average detailed clinical score, right hind limb",[19],0.375
same,"Average detailed clinical score, score",[19],0.625
same,Average overall clinical score,[19],1
same,Average animal paw volume,[20],1.64 mL
same,Average animal paw volume percent change (%),[20],24.11%
same,Average animal paw volume,[21],1.54 mL
same,Average animal paw volume percent change (%),[21],16.70%
same,Average animal paw volume,[22],1.54 mL
same,Average animal paw volume percent change (%),[22],16.95%
same,Animal paw volume percent change (%),"Day 15, L paw, group 5 CIA + Compound A 1 mg/kg, 1 mg/kg",10.73% and 42.25% and 30.26% and 23.40% and 10.86% and 24.91% and 44.53%
same,Animal paw volume percent change (%),"Day 15, L paw, group 6 CIA + Compound A 3 mg/kg, 3 mg/kg",12.93% and 23.35% and 12.17% and 8.79% and 18.01% and 25.47%
same,Average animal paw volume,[23],1.58 mL
same,Average animal paw volume percent change (%),[23],19.02%
same,Average animal paw volume,[24],1.51 mL
same,Average animal paw volume percent change (%),[24],14.88%
same,Average animal paw volume,[25],1.50 mL
same,Average animal paw volume percent change (%),[25],14.23%
same,Animal paw volume percent change (%),"Day 15, R paw, group 5 CIA + Compound A 1 mg/kg, 1 mg/kg",8.43% and 39.77% and 13.09% and 24.15% and 10.33% and 30.42% and 20.00%
same,Animal paw volume percent change (%),"Day 15, R paw, group 6 CIA + Compound A 3 mg/kg, 3 mg/kg",4.53% and 9.73% and 9.81% and 5.20% and 34.75% and 17.23%
same,"Average detailed clinical score, left forelimb",[26],0
same,"Average detailed clinical score, left hind limb",[26],1
same,"Average detailed clinical score, right forelimb",[26],0
same,"Average detailed clinical score, right hind limb",[26],1
same,"Average detailed clinical score, score",[26],2
same,Average overall clinical score,[26],2
same,Overall Clinical Score,"Day 15, CIA + Compound A 1 mg/kg, 1 mg/kg",0 (3×) and 4 and 3 (3×) and 2
same,"Average detailed clinical score, left forelimb",[27],0
same,"Average detailed clinical score, left hind limb",[27],1
same,"Average detailed clinical score, right forelimb",[27],0
same,"Average detailed clinical score, right hind limb",[27],1
